Data as given in patent US20220348590A1, “CYCLOOXYGENASE-2 INHIBITORS AND USES THEREOF” (The Board Institute, Inc., priority 2019, published 2022).
Where two headings read alike, the source gives them in different places.

Target: T1, human recombinant COX2 (hCOX2) (UniProt P35354)
T1 sequence (P35354 1-604): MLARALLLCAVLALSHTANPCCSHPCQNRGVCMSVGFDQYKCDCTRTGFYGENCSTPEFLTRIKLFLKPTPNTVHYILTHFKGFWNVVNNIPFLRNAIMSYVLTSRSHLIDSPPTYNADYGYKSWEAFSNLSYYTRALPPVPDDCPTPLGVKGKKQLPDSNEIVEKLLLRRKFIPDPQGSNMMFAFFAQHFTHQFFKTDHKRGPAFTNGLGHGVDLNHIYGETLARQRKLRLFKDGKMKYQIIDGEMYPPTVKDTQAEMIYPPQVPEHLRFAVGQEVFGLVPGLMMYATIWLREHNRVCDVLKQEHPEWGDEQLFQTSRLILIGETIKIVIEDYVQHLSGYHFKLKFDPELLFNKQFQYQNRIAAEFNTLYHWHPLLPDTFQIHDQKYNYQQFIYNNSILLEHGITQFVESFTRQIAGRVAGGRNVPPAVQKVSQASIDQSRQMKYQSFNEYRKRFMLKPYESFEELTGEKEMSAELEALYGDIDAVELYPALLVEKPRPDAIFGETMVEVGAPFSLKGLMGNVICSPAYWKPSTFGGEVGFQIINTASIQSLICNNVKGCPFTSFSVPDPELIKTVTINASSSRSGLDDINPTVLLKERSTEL
Assay: LCMS-based COX2 enzymatic inhibition assay (PGE2 quantification)
Type: biochemical
Set-up: COX2 2 minutes pge2/pge2d4 area ratio Avg; other: 2 minutes; readout pge2/pge2d4 area ratio; average; COX2 2 minutes pge2/pge2d4 area ratio Avg; LLE; average LLE; COX2 2 minutes pge2 area (counts) Avg; readout pge2 area (counts); other: 2 min; "ovine COX2 (oCOX2), human recombinant COX2 (hCOX2)"
Details: for COX2 2 minutes pge2/pge2d4 area ratio Avg. LLE / COX2 2 minutes pge2 area (counts) Avg. LLE / COX2 10 minutes pge2 area (counts) Avg. LLE: average LLE; for IC50: average
Outline: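 PGE2 formed from arachidonic acid (final 5 μM, 2 min) was measured by LC-MS-MS against DMSO controls. Enzyme (oCOX-1 0.1 μg or hCOX2 0.2 μg) with hematin/epinephrine cofactors at pH 8.0 was given 10 min at 37 °C with compound first. Twelve-point curves run three times gave IC50.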

[1] = 2 minutes, readout pge2/pge2d4 area ratio
[2] = 2 minutes, readout pge2/pge2d4 area ratio, read-out: COX2 2 minutes pge2/pge2d4 area ratio Avg. IC50
[3] = 2 minutes, readout pge2 area (counts)
[4] = 2 minutes, readout pge2 area (counts), read-out: COX2 2 minutes pge2 area (counts) Avg. IC50
[5] = read-out: COX2 2 minutes pge2/pge2d4 area ratio Avg. IC50 (microM), 2 minutes, readout pge2/pge2d4 area ratio
[6] = 10 minutes, readout pge2 area (counts)
[7] = 10 minutes, readout pge2 area (counts), read-out: COX2 10 minutes pge2 area (counts) Avg. IC50

Row | SMILES | COX2 2 minutes pge2/pge2d4 area ratio Avg. LLE [1] | IC50 [2] [µM] | COX2 2 minutes pge2 area (counts) Avg. LLE [3] | IC50 [4] [µM] | IC50 [5] [µM] | COX2 10 minutes pge2 area (counts) Avg. LLE [6] | IC50 [7] [µM]
1 | Cn1ccc(CNc2cccc(-c3ccc(S(C)(=O)=O)cc3)n2)n1 [Compound 188] | 4.275 | 0.652 | 4.373 | 0.546 |  |  | 
2 | CS(=O)(=O)c1ccc(-c2cccc(NCc3ncco3)n2)cc1 [Compound 231] | 3.1763 | 2.4 | 3.075 | 2.73 |  |  | 
3 | CS(=O)(=O)c1ccc(-c2cc3c(cn2)cnn3Cc2cccs2)cc1 [Compound 301] |  |  |  |  | 5.2 |  | 
4 | CS(=O)(=O)c1ccc(-c2cncc(SCc3cnoc3)n2)cc1 [Compound 213] | 4.567 | 1.5 | 4.663 | 1.32 |  |  | 
5 | CN(Cc1ccco1)c1cccc(-c2ccc(S(C)(=O)=O)cc2)n1 [Compound 200] | 2.819 | 1.01 | 2.726 | 1.38 |  |  | 
6 | CS(=O)(=O)c1ccc(-c2cncc(OCc3cccs3)c2)cc1 [Compound 232] | 2.229 | 2.41 | 2.107 | 2.35 |  |  | 
7 | CN1CC[C@H](CNc2cncc(-c3ccc(S(C)(=O)=O)cc3)n2)C1 [Compound 307] |  |  |  |  | 5.2 |  | 
8 | CC(C)CNc1cncc(-c2ccc(S(C)(=O)=O)cc2)n1 [Compound 178] | 4.69 | 0.544 | 4.636 | 0.608 |  | 5.429 | 0.119
9 | CS(=O)(=O)c1ccc(-c2coc3ccc(NCc4ccco4)nc23)cc1 [Compound 68] |  | 0.0402 |  | 0.041 |  |  | 
10 | CS(=O)(=O)c1ccc(-c2cnc(C(F)(F)F)c(NCc3cccs3)n2)cc1 [Compound 144] | 3.605 | 0.234 | 3.637 | 0.229 |  |  | 
11 | CS(=O)(=O)c1ccc(-c2cccc(NCc3ccon3)n2)cc1 [Compound 150] | 5.05 | 0.276 | 5.0953 | 0.249 |  |  | 
12 | CS(=O)(=O)c1ccc(-c2cncc(OCc3ccc(Cl)o3)n2)cc1 [Compound 212] | 2.9422 | 1.47 | 2.889 | 1.66 |  |  | 
13 | CS(=O)(=O)c1ccc(-c2cc(S(C)(=O)=O)cc(NCc3cccs3)n2)cc1 [Compound 268] | 2.624 |  | 2.624 |  | 5.2 |  | 
14 | CS(=O)(=O)c1ccc(-c2cncc(NC34CC5CC(CC(C5)C3)C4)n2)cc1 [Compound 240] | 2.7806 | 2.82 | 2.394 |  |  | 2.9969 | 1.31
15 | CS(=O)(=O)c1ccc(-c2cncc(OC[C@@H]3CCCS3)n2)cc1 (single isomer, unassigned) [Compound 170] | 4.61 | 0.442 | 4.149 | 0.931 |  |  | 
16 | C[C@@H](Oc1cccc(-c2ccc(S(C)(=O)=O)cc2)n1)c1cccs1 (single isomer, unassigned) [Compound 229] | 1.429 | 2.25 | 1.483 | 1.99 |  |  | 
17 | CS(=O)(=O)c1ccc(-c2cccc(NCc3cocn3)n2)cc1 [Compound 254] | 3.075 | 3.93 |  |  |  |  | 
18 | CS(=O)(=O)c1ccc(-c2cncc(NCc3ccno3)n2)cc1 [Compound 202] | 5.815 | 1.05 | 5.757 | 1.19 |  |  | 

Row | SMILES | COX2 2 minutes pge2/pge2d4 area ratio Avg. LLE [1] | IC50 [2] [µM] | COX2 2 minutes pge2 area (counts) Avg. LLE [3] | IC50 [4] [µM] | IC50 [5] [µM] | COX2 10 minutes pge2 area (counts) Avg. LLE [6] | IC50 [7] [µM]
19 | CS(=O)(=O)c1ccc(-n2ncc3ccc(NCc4cccs4)nc32)cc1 [Compound 92] |  | 0.0686 |  | 0.0584 |  |  | 
20 | CS(=O)(=O)c1ccc(Oc2cccc(NCc3cccs3)n2)cc1 [Compound 310] |  |  |  |  | 5.2 |  | 
21 | CS(=O)(=O)c1ccc(-c2cccc([C@@H](O)Cc3cccs3)n2)cc1 [Compound 205] | 3.07 | 1.25 | 3.131 | 1.06 |  |  | 
22 | COc1ncc(OCc2ccoc2)nc1-c1ccc(S(C)(=O)=O)cc1 [Compound 22] | 5.719 | 0.0112 | 5.729 | 0.0112 |  |  | 
23 | CS(=O)(=O)c1ccc(-c2cncc(SCc3cnco3)n2)cc1 [Compound 226] | 3.47 | 2.04 | 3.565 | 1.79 |  |  | 
24 | CS(=O)(=O)c1ccc(-c2cnc3cn(Cc4cccs4)nc3n2)cc1 [Compound 288] | 2.844 |  | 2.844 |  | 5.2 |  | 
25 | CS(=O)(=O)c1ccc(-n2ccc3ccc(OCc4cccs4)nc32)cc1 [Compound 122] | 2.212 | 0.127 | 2.325 | 0.095 |  |  | 
26 | C[C@H](Nc1cncc(-c2ccc(S(C)(=O)=O)cc2)n1)c1cccs1 [Compound 109] | 4.384 | 0.0982 | 4.487 | 0.0793 |  | 5.297 | 0.0132
27 | CS(=O)(=O)c1ccc(-c2cccc(NCc3ccco3)n2)cn1 [Compound 250] | 3.529 | 3.44 | 3.534 | 3.47 |  |  | 
28 | CS(=O)(=O)c1ccc(-c2cncc(OCCc3cccs3)n2)cc1 [Compound 312] |  |  | 2.744 |  | 5.2 |  | 
29 | CS(=O)(=O)c1ccc(-n2ccc3ncc(NCc4cccs4)nc32)cc1 [Compound 126] | 3.568 | 0.142 | 3.634 | 0.122 |  |  | 
30 | CS(=O)(=O)c1ccc(-c2cncc([S+]([O-])Cc3cccs3)n2)cc1 (stereo not drawn) [Compound 303] |  |  |  |  | 5.2 |  | 
31 | CS(=O)(=O)c1ccc(-c2cncc(NC[C@H]3CCCO3)n2)cc1 [Compound 263] | 4.417 | 4.61 | 4.469 | 4.09 |  |  | 
32 | CS(=O)(=O)c1ccc(-c2cccc(Nc3ccccc3)n2)cc1 [Compound 194] | 2.607 | 0.883 | 2.538 | 1.04 |  |  | 
33 | Cc1ccc(CNc2cccc(-c3ccc(S(C)(=O)=O)cc3)n2)o1 [Compound 117] | 4.029 | 0.11 | 4.185 | 0.0615 |  |  | 
34 | COc1cc(S(C)(=O)=O)ccc1-c1cccc(NCc2cccs2)n1 [Compound 259] | 1.917 | 4.15 | 2.088 | 3.25 |  |  | 
35 | CS(=O)(=O)c1ccc(-c2cnc3ccn(Cc4nccs4)c3n2)cc1 [Compound 176] | 3.19 | 0.532 | 3.2105 | 0.52 |  |  | 
